Among the data in patent US20250073340A1, “SPIROCYCLIC MDM2 MODULATOR AND USES THEREOF” (Newave Pharmaceutical Inc., priority 2021, published 2025) are IC50 values, retold here.

The test system of assay [1] is BCL-2-dependent acute lymphoblastic leukemia (ALL) cell line RS4;11 overexpressing Bcl-2 G101V. Kind of assay: cells. Type of assay: cell-based. The conditions noted are these: Homo sapiens, read-out: RS4;11-G101V IC50. The method, then:
Biological Example 2: In vitro Anti-proliferation Assay in BCL-2-dependent acute lymphoblastic leukemia (ALL) cell line RS4; 11 overexpressing Bcl-2 G101V
Cell antiproliferation was assayed by PerkinElmer ATPlite™ Luminescence Assay System. Briefly, the various test cancer cell lines were plated at a density of about 1×10^4 cells per well in Costar 96-well plates, and were incubated with different concentrations of compounds for about 72 hours in medium supplemented with 5% FBS or 10% normal human serum (NHS). One lyophilized substrate solution vial was then reconstituted by adding 5 mL of substrate buffer solution, and was agitated gently until the solution was homogeneous. About 50 μL of mammalian cell lysis solution was added to 100 μL of cell suspension per well of a microplate, and the plate was shaken for about five minutes in an orbital shaker at −700 rpm. This procedure was used to lyse the cells and to stabilize the ATP. Next, 50 μL substrate solution was added to the wells and microplate was shaken for five minutes in an orbital shaker at −700 rpm. Finally, the luminescence was measured by a PerkinElmer TopCount® Microplate Scintillation Counter. Such assays, carried out with a range of doses of test compounds, allowed the determination of the cellular anti-antiproliferative IC50 of the compounds of the present invention.

The next assay addresses MDM2 (Homo sapiens (Human), UniProt Q00987). Description: In vitro MDM2 HTRF assay (inhibition of p53-MDM2 interaction). Conditions: GST-MDM2 / biotinylated p53 peptide. Type of assay: binding. For orientation: TR-FRET usually uses a lanthanide donor and a delayed reading to cut background.
Setting [2] is: RS4-11, about 72 hours, ATPlite luminescence.

Where two headings read alike, the source gives them in different places.

MDM2, sequence (Q00987 whole entry): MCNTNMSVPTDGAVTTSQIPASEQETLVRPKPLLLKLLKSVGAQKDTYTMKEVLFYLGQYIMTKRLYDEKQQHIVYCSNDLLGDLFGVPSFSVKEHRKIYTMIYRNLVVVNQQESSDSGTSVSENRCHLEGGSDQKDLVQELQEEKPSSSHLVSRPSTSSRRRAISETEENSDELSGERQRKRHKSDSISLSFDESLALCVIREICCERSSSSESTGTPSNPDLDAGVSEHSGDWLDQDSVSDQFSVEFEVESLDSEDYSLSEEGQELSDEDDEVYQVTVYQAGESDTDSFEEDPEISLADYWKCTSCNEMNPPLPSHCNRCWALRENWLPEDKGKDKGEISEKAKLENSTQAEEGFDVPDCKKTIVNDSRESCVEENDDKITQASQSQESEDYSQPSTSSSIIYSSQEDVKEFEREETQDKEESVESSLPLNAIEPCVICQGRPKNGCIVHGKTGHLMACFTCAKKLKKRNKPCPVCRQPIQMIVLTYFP

On to `COc1cc(C(N)=O)ccc1NC(=O)[C@@H]1N[C@@H](CC(C)(C)C)[C@@]2(CNc3cc(Cl)ccc32)[C@H]1c1cccc(Cl)c1F` [Example 1, (2′S,3S,4′S,5′R)—N-(4-carbamoyl-2-methoxyphenyl)-6-chloro-4′-(3-chloro-2-fluorophenyl)-2′-neopentylspiro[indoline-3,3′-pyrrolidine]-5′-carboxamide], for which the IC50 in assay [1] (RS4-11, 72 h) worked out at 33 nM.

For the compound `COc1cc(C(N)=O)ccc1NC(=O)[C@@]1(C)N[C@H](CC(C)(C)C)[C@]2(CNc3cc(Cl)ccc32)[C@@H]1c1cccc(Cl)c1F` [Example 8, (2′R,3R,4′R,5′S)—N-(4-carbamoyl-2-methoxyphenyl)-6-chloro-4′-(3-chloro-2-fluorophenyl)-2′-(2,2-dimethylpropyl)-5′-methyl-1,2-dihydrospiro[indole-3,3′-pyrrolidine]-5′-carboxamide], in assay [1] (setting [2]), the IC50 came out at 127 nM.

With `COc1cc(C(N)=O)ccc1NC(=O)[C@H]1N[C@H](CC(C)(C)C)[C@]2(CNc3cc(Cl)ncc32)[C@@H]1c1cccc(Cl)c1F` [Example 10, (2R,3R,4R,5S)—N-(4-carbamoyl-2-methoxyphenyl)-6′-chloro-4-(3-chloro-2-fluorophenyl)-2-(2,2-dimethylpropyl)-1′,2′-dihydrospiro[pyrrolidine-3,3′-pyrrolo[3,2-c]pyridine]-5-carboxamide], the IC50 on MDM2 is 276 nM.

With `COc1cc(C(N)=O)ccc1NC(=O)[C@H]1N[C@H](CC(C)(C)C)[C@]2(CNc3cc(C(F)(F)F)ncc32)[C@@H]1c1cccc(Cl)c1F` [Example 12, (2R,3R,4R,5S)—N-(4-carbamoyl-2-methoxyphenyl)-4-(3-chloro-2-fluorophenyl)-2-(2,2-dimethylpropyl)-6′-(trifluoromethyl)-1′,2′-dihydrospiro[pyrrolidine-3,3′-pyrrolo[3,2-c]pyridine]-5-carboxamide], the IC50 against MDM2 turned out to be 103 nM.

On to `COc1cc(C(=O)NCCCC#Cc2cccc3c2CN(C2CCC(=O)N(C)C2=O)C3=O)ccc1NC(=O)[C@@H]1N[C@@H](CC(C)(C)C)[C@@]2(CNc3cc(Cl)ccc32)[C@H]1c1cccc(Cl)c1F` (stereo partly drawn) [Example 19, (2′S,3S,4′S,5′R)-6-chloro-4′-(3-chloro-2-fluorophenyl)-2′-(2,2-dimethylpropyl)-N-[2-methoxy-4-({5-[2-(1-methyl-2,6-dioxopiperidin-3-yl)-1-oxo-3H-isoindol-4-yl]pent-4-yn-1-yl}carbamoyl)phenyl]-1,2-dihydrospiro[indole-3,3′-pyrrolidine]-5′-carboxamide], for which the IC50 against MDM2 came to 2.03 nM.

As to `COc1cc(C(=O)N[C@H]2CCCC[C@H]2CC#Cc2cccc3c2CN(C2CCC(=O)NC2=O)C3=O)ccc1NC(=O)[C@@H]1N[C@@H](CC(C)(C)C)[C@@]2(CNc3cc(Cl)ccc32)[C@H]1c1cccc(Cl)c1F` (stereo partly drawn) [Example 40, (2′S,3S,4′S,5′R)-6-chloro-4′-(3-chloro-2-fluorophenyl)-2′-(2,2-dimethylpropyl)-N-(4-{[(1S,2S)-2-{3-[2-(2,6-dioxopiperidin-3-yl)-1-oxo-3H-isoindol-4-yl]prop-2-yn-1-yl}cyclohexyl]carbamoyl}-2-methoxyphenyl)-1,2-dihydrospiro[indole-3,3′-pyrrolidine]-5′-carboxamide], the IC50 in assay [1] (setting [2]) came to 11.4 nM.

With `COc1cc(C(=O)N[C@@H]2CCCC[C@@H]2CC#Cc2cccc3c2CN(C2CCC(=O)NC2=O)C3=O)ccc1NC(=O)[C@@H]1N[C@@H](CC(C)(C)C)[C@@]2(CNc3cc(Cl)ccc32)[C@H]1c1cccc(Cl)c1F` (stereo partly drawn) [Example 41, (2′S,3S,4′S,5′R)-6-chloro-4′-(3-chloro-2-fluorophenyl)-2′-(2,2-dimethylpropyl)-N-(4-{[(1R,2R)-2-{3-[2-(2,6-dioxopiperidin-3-yl)-1-oxo-3H-isoindol-4-yl]prop-2-yn-1-yl}cyclohexyl]carbamoyl}-2-methoxyphenyl)-1,2-dihydrospiro[indole-3,3′-pyrrolidine]-5′-carboxamide], in assay [1] (setting [2]), the IC50 was 54.3 nM.

As to `COc1cc(C(=O)N2CCCC[C@@H]2C#CC#Cc2cccc3c2CN(C2CCC(=O)NC2=O)C3=O)ccc1NC(=O)[C@@H]1N[C@@H](CC(C)(C)C)[C@@]2(CNc3cc(Cl)ccc32)[C@H]1c1cccc(Cl)c1F` (stereo partly drawn) [Example 46, (2′S,3S,4′S,5′R)-6-chloro-4′-(3-chloro-2-fluorophenyl)-2′-(2,2-dimethylpropyl)-N-{4-[(2R)-2-{4-[2-(2,6-dioxopiperidin-3-yl)-1-oxo-3H-isoindol-4-yl]buta-1,3-diyn-1-yl}piperidine-1-carbonyl]-2-methoxyphenyl}-1,2-dihydrospiro[indole-3,3′-pyrrolidine]-5′-carboxamide], the IC50 in assay [1] (setting [2]) was over 1000 nM.

Take `COc1cc(C(=O)N2CCCC[C@H]2C#CC#Cc2cccc3c2CN(C2CCC(=O)NC2=O)C3=O)ccc1NC(=O)[C@@H]1N[C@@H](CC(C)(C)C)[C@@]2(CNc3cc(Cl)ccc32)[C@H]1c1cccc(Cl)c1F` (stereo partly drawn) [Example 47, (2′S,3S,4′S,5′R)-6-chloro-4′-(3-chloro-2-fluorophenyl)-2′-(2,2-dimethylpropyl)-N-{4-[(2S)-2-{4-[2-(2,6-dioxopiperidin-3-yl)-1-oxo-3H-isoindol-4-yl]buta-1,3-diyn-1-yl}piperidine-1-carbonyl]-2-methoxyphenyl}-1,2-dihydrospiro[indole-3,3′-pyrrolidine]-5′-carboxamide]: the IC50 in assay [1] (setting [2]) is over 1000 nM.

Regarding `COc1cc(C(=O)N2CC(C#Cc3cccc4c3CN(C3CCC(=O)NC3=O)C4=O)C2)ccc1NC(=O)[C@@H]1N[C@@H](CC(C)(C)C)[C@@]2(CNc3cc(Cl)ccc32)[C@H]1c1cccc(Cl)c1F` (stereo partly drawn) [Example 55, (2′S,3S,4′S,5′R)-6-chloro-4′-(3-chloro-2-fluorophenyl)-2′-(2,2-dimethylpropyl)-N-[4-(3-{2-[2-(2,6-dioxopiperidin-3-yl)-1-oxo-3H-isoindol-4-yl]ethynyl}azetidine-1-carbonyl)-2-methoxyphenyl]-1,2-dihydrospiro[indole-3,3′-pyrrolidine]-5′-carboxamide], in assay [1] (setting [2]), the IC50 was 11.2 nM.

`COc1cc(C(=O)N2CCC[C@@]3(C[C@H]3C#Cc3cccc4c3CN([C@H]3CCC(=O)NC3=O)C4=O)C2)ccc1NC(=O)[C@@H]1N[C@@H](CC(C)(C)C)[C@@]2(CNc3cc(Cl)ccc32)[C@H]1c1cccc(Cl)c1F` [Example 61, (2′S,3S,4′S,5′R)-6-chloro-4′-(3-chloro-2-fluorophenyl)-2′-(2,2-dimethylpropyl)-N-{4-[(1S,3S)-1-(2-{2-[(3S)-2,6-dioxopiperidin-3-yl]-1-oxo-3H-isoindol-4-yl}ethynyl)-5-azaspiro[2.5]octane-5-carbonyl]-2-methoxyphenyl}-1,2-dihydrospiro[indole-3,3′-pyrrolidine]-5′-carboxamide]: in assay [1] (setting [2]), the IC50 was 5.75 nM.

Regarding `COc1cc(C(=O)N2CCC[C@@]3(C[C@@H]3C#Cc3cccc4c3CN([C@H]3CCC(=O)NC3=O)C4=O)C2)ccc1NC(=O)[C@@H]1N[C@@H](CC(C)(C)C)[C@@]2(CNc3cc(Cl)ccc32)[C@H]1c1cccc(Cl)c1F` [Example 62, (2′S,3S,4′S,5′R)-6-chloro-4′-(3-chloro-2-fluorophenyl)-2′-(2,2-dimethylpropyl)-N-{4-[(1R,3S)-1-(2-{2-[(3S)-2,6-dioxopiperidin-3-yl]-1-oxo-3H-isoindol-4-yl}ethynyl)-5-azaspiro[2.5]octane-5-carbonyl]-2-methoxyphenyl}-1,2-dihydrospiro[indole-3,3′-pyrrolidine]-5′-carboxamide], in assay [1] (setting [2]), the IC50 worked out at 40.2 nM.

`COc1cc(C(=O)N2CCC[C@]3(C[C@H]3C#Cc3cccc4c3CN([C@H]3CCC(=O)NC3=O)C4=O)C2)ccc1NC(=O)[C@@H]1N[C@@H](CC(C)(C)C)[C@@]2(CNc3cc(Cl)ccc32)[C@H]1c1cccc(Cl)c1F` [Example 63, (2′S,3S,4′S,5′R)-6-chloro-4′-(3-chloro-2-fluorophenyl)-2′-(2,2-dimethylpropyl)-N-{4-[(1S,3R)-1-(2-{2-[(3S)-2,6-dioxopiperidin-3-yl]-1-oxo-3H-isoindol-4-yl}ethynyl)-5-azaspiro[2.5]octane-5-carbonyl]-2-methoxyphenyl}-1,2-dihydrospiro[indole-3,3′-pyrrolidine]-5′-carboxamide]: the IC50 in assay [1] (setting [2]) worked out at 41.6 nM.

As for `COc1cc(C(=O)N2CCC[C@]3(C[C@@H]3C#Cc3cccc4c3CN([C@H]3CCC(=O)NC3=O)C4=O)C2)ccc1NC(=O)[C@@H]1N[C@@H](CC(C)(C)C)[C@@]2(CNc3cc(Cl)ccc32)[C@H]1c1cccc(Cl)c1F` [Example 64, (2′S,3S,4′S,5′R)-6-chloro-4′-(3-chloro-2-fluorophenyl)-2′-(2,2-dimethylpropyl)-N-{4-[(1R,3R)-1-(2-{2-[(3S)-2,6-dioxopiperidin-3-yl]-1-oxo-3H-isoindol-4-yl}ethynyl)-5-azaspiro[2.5]octane-5-carbonyl]-2-methoxyphenyl}-1,2-dihydrospiro[indole-3,3′-pyrrolidine]-5′-carboxamide], in assay [1] (setting [2]), the IC50 was 188 nM.

Turning to `COc1cc(C(=O)O)ccc1NC(=O)[C@@H]1N[C@@H](CC(C)(C)C)[C@](C#N)(c2ccc(Cl)cc2F)[C@H]1c1cccc(Cl)c1F` [RG7388, reference compound], the IC50 in assay [1] (setting [2]) amounted to 110 nM.
